The term IC50 denotes the midpoint of a concentration-inhibition curve. High values mean a need for much substance, low ones inhibition by little substance.

This is an account of results in patent US11091478B2 (Fochon Pharmaceuticals, Ltd., priority 2017, dated 2021).

One test deals with DOHH2 cells. The experiment in a line: Cell proliferation assay (MTS), DOHH2 cells, 120 h. The test is classed as cell-based. As to conditions: Homo sapiens, DOHH-2, 120 h. Summed up:
(§1)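 Proliferation was scored by MTS (2 h, then SDS stop, A490 with 650 nm reference) and IC50 derived. Compound ran at nine final concentrations from 1.5 to 10000 nM. DOHH2 were incubated 120 h and RS4;11 72 h, both plated at 5000 cells/well in RPMI-1640 plus 10% FBS.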

In the next test the test system is RS4;11 cells. The experiment in a line: Cell proliferation assay (MTS), RS4;11 cells, 72 h. In kind it is cell-based. Conditions: Homo sapiens, RS4-11, 72 h. A digest of the protocol:
as §1

For the molecule `CC1(C)CCC(CN2CCN(c3ccc(C(=O)NS(=O)(=O)c4cc5c(c([N+](=O)[O-])c4)N[C@@H](CCN4CCS(=O)(=O)CC4)CO5)c(Oc4cnc5[nH]ccc5c4)c3)CC2)=C(c2ccc(Cl)cc2)C1` [Example 2-153, (S)-2-((1H-pyrrolo[2,3-b]pyridin-5-yl)oxy)-4-(4-((4′-chloro-5,5-dimethyl-3,4,5,6-tetra-hydro-[1,1′-biphenyl]-2-yl)methyl)piperazin-1-yl)-N-((3-(2-(1,1-dioxidothiomorpholino)ethyl)-5-nitro-3,4-dihydro-2H-benzo[b] [1,4]oxazin-7-yl)sulfonyl)benzamide], the figures for the IC50 in the test with DOHH2 cells and in the test with RS4;11 cells were 8 nM and 1 nM, respectively.
Regarding `CN(C)C[C@H]1COc2cc(S(=O)(=O)NC(=O)c3ccc(N4CCN(CC5=C(c6ccc(Cl)cc6)CC(C)(C)CC5)CC4)cc3Oc3cnc4[nH]ccc4c3)cc([N+](=O)[O-])c2N1` [Example 2-20, (S)-2-((1H-pyrrolo[2,3-b]pyridin-5-yl)oxy)-4-(4-((4′-chloro-5,5-dimethyl-3,4,5,6-tetra-hydro-[1,1′-biphenyl]-2-yl)methyl)piperazin-1-yl)-N-((3-((dimethylamino)methyl)-5-nitro-3,4-dihydro-2H-benzo[b][1,4]oxazin-7-yl)sulfonyl)benzamide], the values for the half-maximal inhibitory concentration (IC50) in the test on DOHH2 cells and in the test on RS4;11 cells were 59 nM and 29 nM, respectively.
For the molecule `CC1(C)CCC(CN2CCN(c3ccc(C(=O)NS(=O)(=O)c4cc5c(c([N+](=O)[O-])c4)N[C@H](CC(=O)N4CCOCC4)CO5)c(Oc4cnc5[nH]ccc5c4)c3)CC2)=C(c2ccc(Cl)cc2)C1` [Example 2-143, (R)-2-((1H-pyrrolo[2,3-b]pyridin-5-yl)oxy)-4-(4-((4′-chloro-5,5-dimethyl-3,4,5,6-tetra-hydro-[1,1′-biphenyl]-2-yl)methyl)piperazin-1-yl)-N-((3-(2-morpholino-2-oxoethyl)-5-nitro-3,4-dihydro-2H-benzo[b][1,4]oxazin-7-yl)sulfonyl)benzamide], the IC50 with DOHH2 cells and with RS4;11 cells was 35 nM each time.
In the case of `CC1(C)CCC(CN2CCN(c3ccc(C(=O)NS(=O)(=O)c4cc5c(c([N+](=O)[O-])c4)N[C@@H](CCN4CCC(C)(O)CC4)C5)c(Oc4cnc5[nH]ccc5c4)c3)CC2)=C(c2ccc(Cl)cc2)C1` [Example 1-17, (R)-2-((1H-pyrrolo[2,3-b]pyridin-5-yl)oxy)-4-(4-((4′-chloro-5,5-dimethyl-3,4,5,6-tetra-hydro-[1,1′-biphenyl]-2-yl)methyl)piperazin-1-yl)-N-((2-(2-(4-hydroxy-4-methylpiper-idin-1-yl)ethyl)-7-nitroindolin-5-yl)sulfonyl) benzamide], the IC50 in the test on DOHH2 cells was found to be 61 nM; in the test on RS4;11 cells, 56 nM.
With `CO[C@H]1CC[C@H](OC[C@@H]2COc3cc(S(=O)(=O)NC(=O)c4ccc(N5CCN(CC6=C(c7ccc(Cl)cc7)CCC(C)(C)C6)CC5)cc4Oc4cnc5[nH]ccc5c4)cc([N+](=O)[O-])c3N2)CC1` [Example 2-252, 2-((1H-pyrrolo[2,3-b]pyridin-5-yl)oxy)-4-(4-((4′-chloro-4,4-dimethyl-3,4,5,6-tetrahydro-[1,1′-biphenyl]-2-yl)methyl)piperazin-1-yl)-N-(((R)-3-((((1r,4R)-4-methoxycyclo-hexyl)oxy)methyl)-5-nitro-3,4-dihydro-2H-benzo[b][1,4]oxazin-7-yl)sulfonyl)benzamide], the IC50 in the test with DOHH2 cells was 83 nM; with RS4;11 cells, 29 nM.
For `CN(C)CC[C@@H]1Cc2cc(S(=O)(=O)NC(=O)c3ccc(N4CCN(CC5=C(c6ccc(Cl)cc6)CC(C)(C)CC5)CC4)cc3Oc3cnc4[nH]ccc4c3)cc([N+](=O)[O-])c2N1` [Example 1-14, (S)-2-((1H-pyrrolo[2,3-b]pyridin-5-yl)oxy)-4-(4-((4′-chloro-5,5-dimethyl-3,4,5,6-tetra-hydro-[1,1′-biphenyl]-2-yl)methyl)piperazin-1-yl)-N-((2-(2-(dimethylamino)ethyl)-7-nitroindolin-5-yl)sulfonyl)benzamide], in that order: 57 nM and 52 nM.
For the molecule `CN1CCN(C[C@H]2COc3cc(S(=O)(=O)NC(=O)c4ccc(N5CCN(CC6=C(c7ccc(Cl)cc7)CC(C)(C)CC6)CC5)cc4Oc4cnc5[nH]ccc5c4)cc([N+](=O)[O-])c3O2)CC1` [Example 5-2], the IC50 with DOHH2 cells came out at 25 nM; with RS4;11 cells it was 1 nM.
For `CC1(C)CCC(CN2CCN(c3ccc(C(=O)NS(=O)(=O)c4cc5c(c([N+](=O)[O-])c4)NC(C4CCOCC4)CO5)c(Oc4cnc5[nH]ccc5c4)c3)CC2)=C(c2ccc(Cl)cc2)C1` (stereo not drawn) [Example 2-185, 2-((1H-pyrrolo[2,3-b]pyridin-5-yl)oxy)-4-(4-((4′-chloro-5,5-dimethyl-3,4,5,6-tetra-hydro[1,1′-biphenyl]-2-yl)methyl)piperazin-1-yl)-N-((5-nitro-3-(tetrahydro-2H-pyran-4-yl)-3,4-dihydro-2H-benzo[b][1,4]oxazin-7-yl)sulfonyl)benzamide], in that order: 3 nM and 1 nM.
With `CC1(C)CCC(CN2CCN(c3ccc(C(=O)NS(=O)(=O)c4cc5c(c([N+](=O)[O-])c4)N[C@H](CN4CC(C)(O)C4)CO5)c(Oc4cnc5[nH]ccc5c4)c3)CC2)=C(c2ccc(Cl)cc2)C1` [Example 2-21, (R)-2-((1H-pyrrolo[2,3-b]pyridin-5-yl)oxy)-4-(4-((4′-chloro-5,5-dimethyl-3,4,5,6-tetra-hydro-[1,1′-biphenyl]-2-yl)methyl)piperazin-1-yl)-N-((3-((3-hydroxy-3-methylazetidin-1-yl)methyl)-5-nitro-3,4-dihydro-2H-ben-zo[b][1,4]oxazin-7-yl)sulfonyl)benzamide], the results for the IC50 in the test with DOHH2 cells and in the test on RS4;11 cells were 8 nM and 1 nM, respectively.
For `CC1(C)CCC(CN2CCN(c3ccc(C(=O)NS(=O)(=O)c4cc5c(c([N+](=O)[O-])c4)N[C@H](CCN4CCC(C)(O)CC4)CO5)c(Oc4cnc5[nH]ccc5c4)c3)CC2)=C(c2ccc(Cl)cc2)C1` [Example 2-15, (R)-2-((1H-pyrrolo[2,3-b]pyridin-5-yl)oxy)-4-(4-((4′-chloro-5,5-dimethyl-3,4,5,6-tetra-hydro-[1,1′-biphenyl]-2-yl)methyl)piperazin-1-yl)-N-((3-(2-(4-hydroxy-4-methylpiper-idin-1-yl)ethyl)-5-nitro-3,4-dihydro-2H-benzo[b][1,4]oxazin-7-yl)sulfonyl)benzamide], the results for the IC50 in the test on DOHH2 cells and in the test with RS4;11 cells were 50 nM and 20 nM, respectively.
For `CC1(C)CCC(CN2CCN(c3ccc(C(=O)NS(=O)(=O)c4cc5c(c([N+](=O)[O-])c4)N[C@@H](CC4CCNCC4)CO5)c(Oc4cnc5[nH]ccc5c4)c3)CC2)=C(c2ccc(Cl)cc2)C1` [Example 2-221, (S)-2-((1H-pyrrolo[2,3-b]pyridin-5-yl)oxy)-4-(4-((4′-chloro-5,5-dimethyl-3,4,5,6-tetra-hydro-[1,1′-biphenyl]-2-yl)methyl)piperazin-1-yl)-N-((5-nitro-3-(piperidin-4-ylmethyl)-3,4-dihydro-2H-benzo[b][1,4]oxazin-7-yl)sulfonyl)benzamide], in that order: 474 nM and 30 nM.
Regarding `CC1(C)CCC(CN2CCN(c3ccc(C(=O)NS(=O)(=O)c4cc5c(c([N+](=O)[O-])c4)N[C@H](CCN4CCC(C)(O)CC4)C5)c(Oc4cnc5[nH]ccc5c4)c3)CC2)=C(c2ccc(Cl)cc2)C1` [Example 1-13, (S)-2-((1H-pyrrolo[2,3-b]pyridin-5-yl)oxy)-4-(4-((4′-chloro-5,5-dimethyl-3,4,5,6-tetra-hydro-[1,1′-biphenyl]-2-yl)methyl)piperazin-1-yl)-N-((2-(2-(4-hydroxy-4-methylpiper-idin-1-yl)ethyl)-7-nitroindolin-5-yl)sulfonyl) benzamide], the IC50 turned out to be 91 nM with DOHH2 cells and 74 nM in the test with RS4;11 cells.
For `C[C@@H]1CN(CC[C@@H]2COc3cc(S(=O)(=O)NC(=O)c4ccc(N5CCN(CC6=C(c7ccc(Cl)cc7)CC(C)(C)CC6)CC5)cc4Oc4cnc5[nH]ccc5c4)cc([N+](=O)[O-])c3N2)CCO1` [Example 2-42, 2-((1H-pyrrolo[2,3-b]pyridin-5-yl)oxy)-4-(4-((4′-chloro-5,5-dimethyl-3,4,5,6-tetrahydro-[1,1′-biphenyl]-2-yl)methyl)piperazin-1-yl)-N-(((R)-3-(2-((R)-2-methylmorpholino)ethyl)-5-nitro-3,4-dihydro-2H-benzo[b][1,4]oxa-zin-7-yl)sulfonyl)benzamide], in that order: 38 nM and 6 nM.
For `COC1CCC([C@@H]2COc3cc(S(=O)(=O)NC(=O)c4ccc(N5CCN(CC6=C(c7ccc(Cl)cc7)CC(C)(C)CC6)CC5)cc4Oc4cnc5[nH]ccc5c4)cc([N+](=O)[O-])c3N2)CC1` (stereo partly drawn) [Example 2-248A, (R)-2-((1H-pyrrolo[2,3-b]pyridin-5-yl)oxy)-4-(4-((4′-chloro-5,5-dimethyl-3,4,5,6-tetra-hydro-[1,1′-biphenyl]-2-yl)methyl)piperazin-1-yl)-N-((3-(4-methoxycyclohexyl)-5-nitro-3,4-dihydro-2H-benzo[b][1,4]oxazin-7-yl)sulfonyl)benzamide], in that order: 27 nM and 35 nM.
On to `CC1(C)CCC(CN2CCN(c3ccc(C(=O)NS(=O)(=O)c4cc5c(c([N+](=O)[O-])c4)N[C@H](CCN4CCS(=O)(=NC6CC6)CC4)CO5)c(Oc4cnc5[nH]ccc5c4)c3)CC2)=C(c2ccc(Cl)cc2)C1` [Example 2-129, (R)-2-((1H-pyrrolo[2,3-b]pyridin-5-yl)oxy)-4-(4-((4′-chloro-5,5-dimethyl-3,4,5,6-tetra-hydro-[1,1′-biphenyl]-2-yl)methyl)piperazin-1-yl)-N-((3-(2-(1-(cylcopropylimino)-1-oxido-1λ^6-thiomorphlino)ethyl)-5-nitro-3,4-dihydro-2H-benzo[b][1,4]oxazin-7-yl)sulfanoyl)benzamide], for which the results for the IC50 with DOHH2 cells and in the test with RS4;11 cells were 16 nM and 9 nM, respectively.
